Test results reported in the supplement of paper PMC10307832.

Experiments:
Test in all cases: relative viability (nuclei count vs DMSO), 5 days (fraction); higher = more cells survive
[1] = compound: C1CC2=C(C1)C=C(C=C2)OC3=NC(=C4C(=N3)N(C=N4)CC5=CC=C(C=C5)C6=CC=CC=C6)N[C@@H](CC7=CC=CC=C7)CO [QS11] + COc1cccc2cc(-c3nc([C@H]4CC[C@H](C(=O)O)CC4)n4ncnc(N)c34)[nH]c12 [OSI-027] (partner 0.5 µM)
Method in brief: (§1)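 Dosing by pin tool came one day after lung cancer cell lines were seeded in 1536-well plates, using either one drug or a fixed anchor-drug dose plus five library-drug doses (not always all listed) in √10 steps. After 5 days, nuclei were counted on 4× images. Relative viability is treated-well nuclei count divided by vehicle-well nuclei count, and values are medians of duplicate plates.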

[2] = compound: C[As](C)SC[C@H](NC(=O)CC[C@H](N)C(=O)O)C(=O)NCC(=O)O [Darinaparsin] + COc1cccc2cc(-c3nc([C@H]4CC[C@H](C(=O)O)CC4)n4ncnc(N)c34)[nH]c12 [OSI-027] (partner 0.5 µM)
Method in brief: as §1

[3] = compound: C[As](C)SC[C@H](NC(=O)CC[C@H](N)C(=O)O)C(=O)NCC(=O)O [Darinaparsin] + N=C(N)NC(=N)NCCc1ccccc1 [Phenformin] (partner 250 µM)
Method in brief: as §1

[4] = compound: CC1=C(C=C(C=C1)NC(=O)C2=CC(=CC=C2)C(C)(C)C#N)NC3=CC4=C(C=C3)N=CN(C4=O)C [AZ628] + NC(=O)Nc1cc(-c2cccc(F)c2)sc1C(=O)N[C@H]1CCCNC1 [AZD7762] (partner 0.2 µM)
Method in brief: as §1

Cell Line | relative viability ([1]; first compound 0.08 µM) | relative viability ([1]; first compound 0.253 µM) | relative viability ([1]; first compound 0.8 µM) | relative viability ([1]; first compound 2.53 µM) | relative viability ([1]; first compound 8 µM) | relative viability ([2]; first compound 0.08 µM) | relative viability ([2]; first compound 0.8 µM) | relative viability ([2]; first compound 2.53 µM) | relative viability ([2]; first compound 8 µM) | relative viability ([3]; first compound 0.08 µM) | relative viability ([3]; first compound 0.8 µM) | relative viability ([3]; first compound 2.53 µM) | relative viability ([3]; first compound 8 µM) | relative viability ([4]; first compound 0.08 µM) | relative viability ([4]; first compound 0.253 µM) | relative viability ([4]; first compound 0.8 µM) | relative viability ([4]; first compound 2.53 µM) | relative viability ([4]; first compound 8 µM)
UMC-11 | 0.474 | 0.481 | 0.501 | 0.492 | 0.57 | 0.543 | 0.529 | 0.414 | 0.592 | 0.369 | 0.341 | 0.357 | 0.325 |  |  |  |  | 
LCLC-103H | 0.434 | 0.45 | 0.469 | 0.49 | 0.502 | 0.481 | 0.465 | 0.414 | 0.531 | 0.36 | 0.365 | 0.318 | 0.349 | 0.759 | 0.771 | 0.824 | 0.79 | 0.783
LU99A | 0.255 | 0.306 | 0.299 | 0.291 | 0.315 | 0.311 | 0.298 | 0.337 | 0.271 | 0.927 | 0.856 | 0.897 | 0.78 | 0.436 | 0.363 | 0.415 | 0.33 | 0.22
LXF-289 | 0.764 | 0.805 | 0.692 | 0.873 | 0.82 | 0.849 | 0.786 | 0.649 | 1.02 | 0.556 | 0.523 | 0.471 | 0.556 | 1.12 | 1.08 | 0.98 | 1.06 | 0.652
EPLC-272H |  | 0.287 | 0.253 | 0.259 | 0.26 |  | 0.285 | 0.243 | 0.321 |  | 0.237 | 0.251 | 0.267 | 0.34 | 0.168 | 0.165 | 0.22 | 0.236
LOU-NH91 | 0.678 | 0.722 | 0.693 | 0.728 | 0.71 | 0.74 | 0.689 | 0.711 | 0.79 | 0.731 | 0.683 | 0.692 | 0.705 | 0.75 | 0.712 | 0.727 | 0.68 | 0.603
HCC-44 | 0.606 | 0.531 | 0.512 | 0.593 | 0.378 | 0.511 | 0.514 | 0.454 | 0.378 | 0.312 | 0.197 | 0.223 | 0.169 | 1.01 | 0.945 | 1.08 | 1.04 | 1.24
NCI-H1651 | 0.618 | 0.645 | 0.733 | 0.625 | 0.662 | 0.78 | 0.753 | 0.619 | 0.822 | 0.351 | 0.302 | 0.298 | 0.357 | 0.466 | 0.393 | 0.44 | 0.448 | 0.318
NCI-H1915 | 0.61 | 0.617 |  | 0.622 | 0.591 | 0.741 | 0.649 | 0.644 | 0.749 | 0.404 | 0.373 | 0.359 | 0.375 | 0.741 | 0.782 | 0.644 | 0.558 | 0.271
NCI-H2009 | 0.66 | 0.639 | 0.53 | 0.448 | 0.462 | 0.61 | 0.657 | 0.584 | 0.587 | 0.511 | 0.52 | 0.475 | 0.55 |  |  |  |  | 
COR-L 105 | 0.711 | 0.521 | 0.547 | 0.629 | 0.447 | 0.625 | 0.704 | 0.486 | 0.559 | 0.505 | 0.486 | 0.433 | 0.451 |  |  |  |  | 
ABC-1 | 0.477 | 0.348 | 0.519 | 0.492 | 0.457 | 0.489 | 0.424 | 0.453 | 0.444 | 0.256 | 0.21 | 0.234 | 0.264 | 0.761 | 0.786 | 0.768 | 0.865 | 0.745
NCI-H1793 | 0.248 | 0.27 | 0.277 | 0.341 | 0.332 | 0.329 | 0.254 | 0.27 | 0.309 | 0.358 | 0.435 | 0.327 | 0.422 | 0.52 | 0.244 | 0.419 | 0.319 | 0.177
NCI-H1792 | 0.731 | 0.969 | 0.65 | 0.565 | 0.82 | 0.847 | 0.604 | 0.866 | 0.96 | 0.334 | 0.258 |  | 0.205 | 0.776 | 0.668 | 0.575 | 0.541 | 0.385
ChaGo-K-1 | 0.358 | 0.666 | 0.749 | 0.659 | 0.569 | 0.612 | 0.518 | 0.516 | 0.715 | 0.494 | 0.535 | 0.515 | 0.575 | 0.935 | 0.821 | 0.805 | 0.853 | 0.663
